Values of other authors, collected in US8207376B2, “Method for producing amino acid phosphates” (priority 2006, dated 2012).

Experiments:
[1] = heating; known property
[2] = as reported in JP-A-2006-182753
[3] = as reported in JP-A-2006-182753; remark: listed apart in the source

Structure (SMILES) | temperature at which it is completely degraded [1] [°C] | stimulative nature against the skin and tongue [2] | permeability through the skin and the like [3]
Cl.NCC(=O)CCC(=O)O [δ-aminolevulinic acid hydrochloride] | ≥ 156 |  | 
NCC(=O)CCC(=O)O.O=P(O)(O)O [δ-aminolevulinic acid phosphate] |  | low stimulative nature against the skin and tongue | excellent
